Data set [1] has as its target T1, VR1 (Homo sapiens, UniProt Q8NER1). As to the kind of experiment: Calcium uptake assay, low pH (proton) agonist. The data set is classed as cell-based. The arrangement: expressed in transfected cells; host or cells: T-REx HEK 293 (Invitrogen), pcDNA5/TO vector.
Target sequence in this assay (Q8NER1 whole entry): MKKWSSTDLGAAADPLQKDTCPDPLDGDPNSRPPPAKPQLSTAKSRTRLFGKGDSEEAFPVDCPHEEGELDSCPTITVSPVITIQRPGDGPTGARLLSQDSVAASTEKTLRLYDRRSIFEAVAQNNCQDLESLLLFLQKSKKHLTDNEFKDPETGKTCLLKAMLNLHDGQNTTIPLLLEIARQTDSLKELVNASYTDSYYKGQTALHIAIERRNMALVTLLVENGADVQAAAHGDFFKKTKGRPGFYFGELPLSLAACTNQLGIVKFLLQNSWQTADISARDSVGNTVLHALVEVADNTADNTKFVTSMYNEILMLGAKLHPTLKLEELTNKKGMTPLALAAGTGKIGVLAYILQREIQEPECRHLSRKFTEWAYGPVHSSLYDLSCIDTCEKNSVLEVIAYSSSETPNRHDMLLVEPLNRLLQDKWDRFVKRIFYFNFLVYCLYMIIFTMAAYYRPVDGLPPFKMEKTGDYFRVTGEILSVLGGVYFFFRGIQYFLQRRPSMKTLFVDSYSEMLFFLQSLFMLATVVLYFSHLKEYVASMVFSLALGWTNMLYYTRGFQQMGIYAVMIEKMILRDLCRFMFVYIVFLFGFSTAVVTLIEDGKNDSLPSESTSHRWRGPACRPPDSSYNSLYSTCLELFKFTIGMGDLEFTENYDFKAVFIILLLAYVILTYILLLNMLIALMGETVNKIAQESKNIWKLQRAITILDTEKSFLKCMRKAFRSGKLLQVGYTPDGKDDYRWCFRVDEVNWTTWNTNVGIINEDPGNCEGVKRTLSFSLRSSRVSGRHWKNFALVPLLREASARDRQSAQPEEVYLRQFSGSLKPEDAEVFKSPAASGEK
Data set [2] concerns the target T1, VR1. Briefly: Acid stimulation assay (FDSS 6000). The data set is classed as cell-based. The conditions noted are these: final assay buffer pH5.8, 15 min pre-incubation. Here is the method:
The Acid-induced changes in the intracellular calcium concentration were monitored using FDSS 6000 (Hamamatsu Photonics, Japan), a fluorometric imaging system. The cell suspension in resting buffer (HBSS supplemented with 10 mM HEPES, pH 7.4) was pre-incubated with varying concentrations of the test compounds or resting buffer (buffer control) for 15 minutes at room temperature under dark conditions. The cells were automatically added the stimulating solution (HBSS supplemented with MES, final assay buffer pH5.8) by the FDSS 6000.
Target sequence in this assay (Q8NER1 whole entry, species assumed): as the sequence (Q8NER1 whole entry) above

Data set [3] in a line: Pharmacokinetic evaluation following intravenous and oral administration in rats. The data set is classed as in vivo. The conditions noted are these: male, Sprague-Dawley, plasma, rat. Here is the method: Male Sprague-Dawley rats are acclimatized for at least 24 hours prior to experiment initiation. During acclimation period, all animals receive food and water ad libitum. However, food but not water is removed from the animal's cages at least 12 hours before initiation of the experiment. During the first 3 hours of experimentation, the animals receive only water ad libitum. At least three animal each are tested for intravenous and oral dosage. For intravenous formulation, compounds were dissolved (0.25 to 1 mg/mL) in a mixture of 3% dimethyl sulfoxide, 40% PEG 400 and the rest percentage of 40% Captisol in water (w/v). For oral formulation, compounds of this invention are dissolved (2 mg/mL) in a mixture of 5% of 10% Tween 80 in water (v/v) and 95% of 0.5% methyl cellulose in water (w/v). The animals are weighed before dosing. The determined body weight is used to calculate the dose volume for each animal.
Dose volume(mL/kg)=1 mg/kg/formulation concentration(mg/mL)
In instances where the formulation concentrations were less than 0.5 mg/mL, the dosing volume is about 2 mL/kg. PO rats are typically dosed through oral gavage at 2.5 mL/kg to achieve a dose level of 5 mg/kg. For IV dosing, blood samples are collected (using a pre-heparinized syringe) via the jugular vein catheter at 2, 5, 15, 30, 60, 120, 180, 300, 480, and 1440 minutes post dosing. For PO dosing, blood samples are collected (using a pre-heparinized syringe) via the jugular vein catheter before dosing and at 5, 15, 30, 60, 120, 180, 300, 480, and 1440 minutes post dosing. About 250 uL of blood is obtained at each time point from the animal. Equal volumes of 0.9% normal saline are replaced to prevent dehydration. The whole blood samples are maintained on ice until centrifugation. Blood samples are then centrifuged at 14,000 rpm for 10 minutes at 4° C. and the upper plasma layer transferred into a clean vial and stored at −80° C. The resulting plasma samples are then analyzed by liquid chromatography-tandem mass spectrometry. Following the measurement of plasma samples and dosing solutions, plasma concentration-time curve is plotted. Plasma exposure is calculated as the area under the concentration-time curve extrapolated to time infinite (AUCinf). The AUCinf is averaged and the oral bioavailability (% F) for individual animal is calculated as:
AUCinf (PO)/AUCinf (IV), normalized to their respective dose levels. The % F is reported as the mean % F of all animals dosed orally with the compound of the invention at the specified level (Table 6).
In vivo clearance in the rat was calculated by conducting a non-compartmental analysis of the pharmacokinetic profile using WinNonlin software.

[4] abbreviates: HEK293, 0.3 μM compound, low pH (protons) as agonist, HEK 293 cells expressing hVR1, read-out: Low pH % Inhib. @ 0.3 μM.

Like-named read-outs stand apart in the source and are kept apart here.

As to `CC(=O)N1CCCc2ccc(NC(=O)c3ccc(/C=C/C(F)(F)F)cc3C)cc21` [Compound 322, (E)-N-(1-acetyl-1,2,3,4-tetrahydroquinolin-7-yl)-2-methyl-4-(3,3,3-trifluoroprop-1-enyl)benzamide], the inhibition at 0.3 µM in data set [1] (setting [4]) came out at 42.7%.

On to `Cc1cc(/C=C/C(F)(F)F)ccc1C(=O)Nc1cnc2cc(C(C)(C)O)cnc2c1` [Compound 326, (E)-N-(7-(2-hydroxypropan-2-yl)-1,5-naphthyridin-3-yl)-2-methyl-4-(3,3,3-trifluoroprop-1-enyl)benzamide], for which the inhibition at 0.3 µM in data set [1] (setting [4]) came out at 6.76%.

Take `Cc1cc(/C=C/C(F)(F)F)ccc1C(=O)Nc1cccc2c1C[C@@H](O)CC2` (single isomer, unassigned) [Compound 313]: in data set [1] (setting [4]), the inhibition at 0.3 µM is 106%. In data set [2], this compound showed a half-inhibitory concentration (IC50) of 14 nM.

For the compound `Cc1cc(/C=C/C(F)(F)F)ccc1C(=O)Nc1cccc2c1C[C@H](O)CC2` (single isomer, unassigned) [Compound 314], the inhibition at 0.3 µM in data set [1] (setting [4]) was found to be 121%. In data set [2], this compound had a half-inhibitory concentration (IC50) of 23 nM.

Take `Cc1cc(/C=C/C(F)(F)F)ccc1C(=O)Nc1cnc2cc(C(C)O)cnc2c1` (stereo not drawn) [Compound 320, (E)-N-(7-(1-hydroxyethyl)-1,5-naphthyridin-3-yl)-2-methyl-4-(3,33-trifluoroprop-1-enyl)benzamide]: in data set [1] (setting [4]), the inhibition at 0.3 µM turned out to be 47%.

With `CC(=O)c1nc2cc(NC(=O)c3ccc(/C=C/C(F)(F)F)cc3C)ccc2s1` [Compound 410, (E)-N-(2-acetylbenzo[d]thiazol-5-yl)-2-methyl-4-(3,3,3-trifluoroprop-1-enyl)benzamide], the inhibition at 0.3 µM in data set [1] (setting [4]) is 12%. The compound also showed a concentration for half-maximal inhibition (IC50) in data set [2] of 707 nM.

Take `Cc1cc(/C=C/C(F)(F)F)ccc1C(=O)Nc1ccc2ccc(O)nc2n1` [Compound 311, (E)-N-(7-hydroxy-1,8-naphthyridin-2-yl)-2-methyl-4-(3,3,3-trifluoroprop-1-en-1)benzamide]: the inhibition at 0.3 µM in data set [1] (setting [4]) came to 20%.

Consider `O=C(Nc1ccc2c(c1)OCCN2)c1ccc(C#CC2CC2)nc1Cl` [Compound 119], for which, in data set [1] (setting [4]), the inhibition at 0.3 µM came out at 0%.

For `Cc1cc(/C=C/C(F)(F)F)ccc1C(=O)Nc1ccc2c(c1)N(C(=O)C(C)(C)C)CC2` [Compound 405, (E)-N-[1-(2,2-dimethyl-propionyl)-2,3-dihydro-1H-indol-6-yl]-2-methyl-4-(3,3,3-trifluoro-prop-1-enyl)benzamide], the inhibition at 0.3 µM in data set [1] (setting [4]) was found to be 14%.

As for `C/C(=C\c1ccc(C(=O)Nc2cnc3ccccc3c2)c(C)c1)C(F)(F)F` [Compound 316], the inhibition at 0.3 µM in data set [1] (setting [4]) was found to be 52%.

As to `CC(=O)n1ccc2cc(NC(=O)c3ccc(/C=C/C(F)(F)F)cc3C)cnc21` [Compound 408, (E)-N-(1-acetyl-1H-pyrrolo[2,3-b]pyridin-5-yl]-2-methyl-4-(3,3,3-trifluoroprop-1-enyl)benzamide], the inhibition at 0.3 µM in data set [1] (HEK293, read-out: Low pH % Inhib. @ 0.3 μM) was determined as 91%. Besides, inhibition in data set [2] was half-maximal at 61 nM (IC50).

As for `Cc1cc(/C=C/C(F)(F)F)ccc1C(=O)Nc1ccc2nccnc2c1` [Compound 325, (E)-2-methyl-N-(Quinoxalin-6-yl)-4-(3,3,3-trifluoroprop-1-enyl)benzamide], the inhibition at 0.3 µM in data set [1] (setting [4]) was 72.3%. In data set [2], this compound displayed a half-inhibitory concentration (IC50) of 147 nM.

For the compound `Cc1cc(/C=C/C(F)(F)F)ccc1C(=O)Nc1ccc2c(c1)C(=O)CCC2` [Compound 306, (E)-2-methyl-N-(8-oxo-5,6-7,8-tetrahydronaphthylen-2-yl)-4(3,3,3-trifluoroprop-1-enyl)benzamide], the inhibition at 0.3 µM in data set [1] (setting [4]) came out at 51%.

Regarding `CS(=O)(=O)c1cc(C#CC2CCCC2)ccc1C(=O)Nc1ccc2c(c1)OCCO2` [Compound 159], in data set [1] (setting [4]), the inhibition at 0.3 µM worked out at 0%.

In the case of `Cc1cc(/C=C/C(F)(F)F)ccc1C(=O)Nc1ccc2c(c1)N(C(=O)C1CC1)CC2` [Compound 402, (E)-N-(1-cyclopropanecarbonyl-2,3-dihydro-1H-indol-6-yl)-2-methyl-4-(3,3,3-trifluoro-prop-1-enyl)benzamide], the inhibition at 0.3 µM in data set [1] (setting [4]) was 0%.

For the compound `CC(=O)c1cnc2cc(NC(=O)c3ccc(/C=C/C(F)(F)F)cc3C)cnc2c1` [Compound 324], the inhibition at 0.3 µM in data set [1] (setting [4]) was determined as 0.74%.

In the case of `Cc1cc(/C=C/C(F)(F)F)ccc1C(=O)Nc1ccc2cc(C(=O)O)cnc2c1` [Compound 301], the inhibition at 0.3 µM in data set [1] (setting [4]) amounted to 43%.

Consider `Cc1cc(/C=C/C(F)(F)F)ccc1C(=O)Nc1ccc2c(c1)N(S(C)(=O)=O)CC2` [Compound 401, (E)-N-(1-methanesulfonyl-2,3-dihydro-1H-indol-6-yl]-2-methyl-4-(3,3,3-trifluoroprop-1-enyl)benzamide], for which the inhibition at 0.3 µM in data set [1] (setting [4]) turned out to be 88%. Moreover, the IC50 in data set [2] worked out at 94 nM.

Turning to `Cc1cc(/C=C/C(F)(F)F)ccc1C(=O)Nc1ccc2oc(CO)nc2c1` [Compound 411, (E)-N-(2-(hydroxymethyl)benzo[d]oxazol-5-yl)-2-methyl-(3,3,3-trifluoroprop-1-enyl)benzamide], the inhibition at 0.3 µM in data set [1] (setting [4]) came to 102%. This compound showed an IC50 in data set [2] of 28 nM.

On to `Cc1cc(/C=C/C(F)(F)F)ccc1C(=O)Nc1ccc2c(c1)N(C(=O)CO)CC2` [Compound 407, (E)-N-(1-(2-hydroxyacetyl)-indolin-yl)-2-methyl-4-(3,3,3-trifluoro-Prop-1-enyl)benzamide], for which the inhibition at 0.3 µM in data set [1] (setting [4]) turned out to be 95%. In data set [2], this compound had a 50% inhibitory concentration (IC50) of 32 nM.

`CCC(=O)N1CCc2ccc(NC(=O)c3ccc(/C=C/C(F)(F)F)cc3C)cc21` [Compound 406, (E)-2-methyl-N-(1-propionylindoline-6-yl]-4-(3,3,3-trifluoro-prop-1-enyl)benzamide]: the inhibition at 0.3 µM in data set [1] (setting [4]) amounted to 45%. In data set [2], this compound yielded an IC50 of 323 nM.

On to `Cc1cc(/C=C/C(F)(F)F)ccc1C(=O)Nc1ccc2c(c1)C(=O)N(CCO)C2=O` [Compound 404, (E)-N-(2-(2-hydroxyethyl)-1,3-dioxoisoindolin-5-yl)-2-methyl-(3,3,3-trifluoroprop-1-enyl)benzamide], for which the inhibition at 0.3 µM in data set [1] (setting [4]) is 10%.

For `O=C(Nc1ccc2c(c1)OCC(CO)N2)c1ccc(C#CC2CC2)cc1Cl` (stereo not drawn) [Compound 156], the inhibition at 0.3 µM in data set [1] (setting [4]) is 102%.

As for `Cc1cc(/C=C/C(F)(F)F)ccc1C(=O)Nc1cnc2ncccc2c1` [Compound 321, (E)-2-methyl-N-(1,8-naphthyridin-3-yl)-4-(3,3,3-trifluoroprop-1-enyl)benzamide], the inhibition at 0.3 µM in data set [1] (setting [4]) was found to be 41.5%.

Consider `Cc1cc(/C=C/C(F)(F)F)ccc1C(=O)Nc1ccc2sc(C(C)(C)O)nc2c1` [Compound 409, (E)-N-(2-(2-hydroxypropan-2-yl)benzo[d]thiazol-5-yl)-2-methyl-4-(3,3,3-trifluoroprop-1-enyl)benzamide], for which, in data set [1] (setting [4]), the inhibition at 0.3 µM amounted to 103%. The compound further registered a 50% inhibitory concentration (IC50) in data set [2] of 59 nM.

In the case of `Cc1cc(/C=C/C(F)(F)F)ccc1C(=O)Nc1cnc2c(c1)CC(O)CC2` (stereo not drawn) [Compound 315, (E)-N-(6-hydroxy-5,6,7,8-tetrahydroquinolol-3-yl)-2-methyl-4-(3,3,3-trifluoroprop-1-enyl)benzamide], the inhibition at 0.3 µM in data set [1] (setting [4]) came out at 51.3%.

In the case of `Cc1cc(/C=C/C(F)(F)F)ccc1C(=O)Nc1cnc2c(c1)COC(CO)C2` (stereo not drawn) [Compound 310, (E)-N-(7-hydroxymethyl-7,8-dihydro-5H-pyrano[4,3-b]pyridin-3-yl)-2-methyl-4-(3,3,3-trifluoroprop-1-enyl)benzamide], in data set [1] (setting [4]), the inhibition at 0.3 µM came out at 71%. Besides, the half-inhibitory concentration (IC50) in data set [2] stood at 109 nM.

For `Cc1cc(C#CC(C)(C)C)ccc1C(=O)Nc1cccc2c(Cl)nccc12` [Compound 199], the inhibition at 0.3 µM in data set [1] (setting [4]) was 67%.

On to `Cc1cc(/C=C/C(F)(F)F)ccc1C(=O)Nc1ccc2c(CO)n[nH]c2c1` [Compound 231], for which, in data set [1] (setting [4]), the inhibition at 0.3 µM turned out to be 0%.

As to `Cc1cc(/C=C/C(F)(F)F)ccc1C(=O)Nc1cnc2[nH]ccc2c1` [Compound 230], the bioavailability in data set [3] (AUCinf (PO)/AUCinf (IV), dose normalized, PO 5 mg/kg, read-out: Oral Bioavailability F (%)) came to 17%. The clearance in data set [3] (non-compartmental analysis, read-out: In vivo Clearance (converted)) is 15.3 mL/min/kg.

Usually IC50 stands for the point on the concentration scale where inhibition reaches its midpoint. The low end stands for higher potency, the high end for lower potency. The term bioavailability denotes the share of a dose that reaches the circulation, judged against a reference dose that is usually intravenous.

These data come from patent US20100004222A1, “Amide Derivatives as Ion-Channel Ligands and Pharmaceutical Compositions and Methods of Using the Same” (Renovis, Inc., priority 2006, published 2010).
